From ChEMBL document CHEMBL1134411, “Antitumor benzothiazoles. 14. Synthesis and in vitro biological properties of fluorinated 2-(4-aminophenyl)benzothiazoles” (2001)

Tests used:
Type in all cases: functional
NCI-H226 = assay: Growth inhibition against non-small cell lung cancer cell line […]; details: Homo sapiens
[1] = Growth inhibition against cancer cell line TH-10; details: Homo sapiens, Cancer cell lines
OVCAR-5 = assay: Growth inhibition against ovarian cancer cell line OVCAR-5; details: Homo sapiens
HCC 2998 = assay: Growth inhibition against colon cancer cell line HCC2998; details: Homo sapiens
[2] = Growth inhibition against ovarian cancer cell line IGROV1; details: Homo sapiens, IGROV-1
T47D = assay: Growth inhibition against breast cancer line T-47-D; details: Homo sapiens
MCF7 = assay: Growth inhibition against breast cancer line MCF-7; details: Homo sapiens
OVCAR-4 = assay: Growth inhibition against ovarian cancer cell line OVCAR-4; details: Homo sapiens
[3] = Mean GI50 values are recorded over the NCI 60-cell panel.; details: Homo sapiens
NCI-H460 = assay: Growth inhibition against non-small cell lung cancer cell line NCI-H460; details: Homo sapiens

| Structure (SMILES) | GI50 (NCI-H226) [µM] | GI50 (OVCAR-5) [nM] | GI50 (HCC 2998) [µM] | GI50 (T47D) [nM] | GI50 (MCF7) [nM] | GI50 (OVCAR-4) [µM] | GI50 (NCI-H460) [nM] | GI50 [1] [nM] | GI50 [2] [nM] | GI50 [3] [µM] |
| --- | --- | --- | --- | --- | --- | --- | --- | --- | --- | --- |
| Cc1cc(-c2nc3ccc(F)cc3s2)ccc1N | 60.3 | > 100000 | 34.7 | – | < 10 | 0.01 | 100 | < 10 | 1300 | 47.9 |
| Cc1cc(-c2nc3ccccc3s2)ccc1N | 18.6 | 1900 | – | 20 | < 10 | 1.1 | 29500 | < 10 | < 10 | 12.9 |
| Cc1cc(-c2nc3cc(F)c(F)cc3s2)ccc1N | – | > 100000 | > 100 | < 10 | < 10 | 60.3 | > 100000 | < 10 | < 10 | 67.6 |
| Cc1cc(-c2nc3c(F)cccc3s2)ccc1N | 5.5 | 1700 | > 100 | < 10 | < 10 | 20.9 | 1000 | – | 22900 | 34.6 |
| Nc1ccc(-c2nc3ccccc3s2)cc1C(F)(F)F | 15.1 | 17400 | 10.7 | 5400 | 1500 | 15.8 | 14500 | 13200 | 2600 | 14.1 |
| Nc1ccc(-c2nc3cc(F)ccc3s2)cc1 | < 0.01 | 29500 | – | 260 | < 10 | 13.5 | 870 | 11500 | 11500 | 23.4 |
| Cc1cc(-c2nc3ccc(O)cc3s2)ccc1N | 60.3 | 83200 | > 100 | 22400 | 56200 | 37.2 | – | 77600 | 47900 | 41.7 |
| Nc1ccc(-c2nc3ccc(F)cc3s2)cc1 | 46.8 | 26900 | 17.8 | – | < 10 | 22.9 | 24500 | 26300 | 21300 | 30.2 |

Now those with a lower GI50 (OVCAR-5), led by results:

| GI50 (NCI-H226) [µM] | GI50 (OVCAR-5) [nM] | GI50 (HCC 2998) [µM] | GI50 (T47D) [nM] | GI50 (MCF7) [nM] | GI50 (OVCAR-4) [µM] | GI50 (NCI-H460) [nM] | Structure (SMILES) | GI50 [1] [nM] | GI50 [2] [nM] | GI50 [3] [µM] |
| --- | --- | --- | --- | --- | --- | --- | --- | --- | --- | --- |
| 10.2 | 280 | < 0.01 | 130 | < 10 | < 0.01 | – | Nc1ccc(-c2nc3cc(F)ccc3s2)cc1I | 70 | < 10 | 7.6 |
| 0.03 | < 10 | – | 40 | < 10 | 0.32 | 40 | Nc1ccc(-c2nc3cc(F)ccc3s2)cc1Cl | – | < 10 | 5.8 |
| 0.13 | 50 | < 0.01 | 20 | < 10 | 24 | 110 | Nc1ccc(-c2nc3cc(F)ccc3s2)cc1Br | 50 | < 10 | 5.1 |
| 0.07 | 100 | 0.32 | < 10 | < 10 | 0.03 | > 100000 | Nc1ccc(-c2nc3ccc(F)cc3s2)cc1I | < 10 | < 10 | 33.9 |
| 1.3 | < 10 | – | < 10 | < 10 | < 0.01 | 50 | Cc1cc(-c2nc3cc(F)ccc3s2)ccc1N | < 10 | < 10 | 4.4 |
| – | 1300 | 13.8 | 20 | < 10 | 7.4 | 4200 | Cc1cc(-c2nc3cccc(F)c3s2)ccc1N | 40 | 70 | 20 |
| < 0.01 | < 10 | 0.1 | < 10 | < 10 | 18.6 | < 10 | Nc1ccc(-c2nc3ccccc3s2)cc1F | < 10 | < 10 | 14.5 |
| 14.1 | 70 | 0.09 | – | < 10 | 0.02 | 100 | Nc1ccc(-c2nc3ccc(F)cc3s2)cc1Cl | < 10 | < 10 | 22.3 |
